Source: EPA's ToxValDB 9.5 (doi:10.2903/j.efsa.2015.4032)

Tests used:
[1] = test system: Apis mellifera; conditions: acute, mortality
[2] = test system: Bibionidae; conditions: chronic/long-term; duration: 28 days
[3] = test system: Colinus virginianus
[4] = test system: Daphnia magna; conditions: chronic/long-term; duration: 21 days; reproduction
[5] = test system: Folsomia candida; conditions: chronic/long-term
[6] = test system: Hypoaspis aculeifer; conditions: chronic/long-term
[7] = test system: Pimephales promelas; conditions: chronic/long-term; duration: 33 days; other
[8] = test system: Rattus norvegicus
[9] = test system: Tagia sp.
[10] = test system: Aphidius rhopalosiphi; experiment: LR50; higher = less toxic; conditions: not reported; mortality
[11] = test system: Typhlodromus pyri; experiment: LR50; higher = less toxic; conditions: not reported; mortality

## Cc1cccc2sc3nncn3c12 [2,7,8,9-Tricyclazole]
[1]; dermal
  LD50: > 99 µg/piece
[1]; oral, unspecified
  LD50: 30.9 µg/piece
[2]
  NOEC: 1.68 mg/L
[3]; acute, oral
  LD50: > 2180 mg/kg-day
[3]; acute, oral, diet
  LC50: > 1140 mg/kg-day
[3]; reproduction developmental
  NOAEL: 27.1 mg/kg-day
[4]
  NOEC: 1.3 mg/L
[5]
  NOEC: 32 mg/kg
[6]
  NOEC: 16 mg/kg
[7]
  NOEC: 0.743 mg/L
[8]; acute, oral, F, mortality
  LD50: 237 mg/kg-day
[8]; chronic
  NOAEL: 5 mg/kg-day
[9]; acute, duration: 14 days, mortality
  LC50: > 1000 mg/kg
[9]; chronic/long-term
  NOEC: 250 mg/kg
[10]
  LR50: < 460 g/ha
[11]
  LR50: > 460 g/ha
